Measurements as given in patent US7655414B2, “Determination of responders to chemotherapy” (Hoffman La-Roche Inc., priority 2005, dated 2010).

Legend:
NSCLC = settings: erlotinib plus carboplatin and paclitaxel; cited from earlier work
[1] = system: first-line NSCLC patients; settings: erlotinib 150 mg/day plus gemcitabine and cisplatin compared with gemcitabine and cisplatin alone; cited from earlier work
[2] = system: non-small-cell lung cancer (NSCLC); settings: single-agent erlotinib, second- or third-line therapy; placebo 4.7 months; statistically significant improvement; cited from earlier work
[3] = system: non-small-cell lung cancer (NSCLC); experiment: Clinical study BO16411: Tarceva plus gemcitabine/cisplatin versus placebo plus gemcitabine/cisplatin, with pMAPK/pAKT IHC biomarker subset; format: in vivo, human
Experimental: Biomarker analyses were performed on a sample subset of 141 patients, for which formalin-fixed paraffin embedded (FFPE) tissue blocks from initial diagnosis had been received.
One pathologist evaluated all immunostainings. The nuclear staining intensity (pAKT, pMAPK) was estimated by visual inspection in a four step scale (0, 1, 2, 3). In addition to nuclear staining intensity, the percentage of positive cells, and the reason for analysis failure (i.e. lack of tumor cells in the tissue spot or lack of the tissue spot on the TMA slide) was recorded. Exploratory Statistical Analysis:
The basic statistics and interdependencies of the different markers were descriptively investigated. Methodological analyses comparing different measurement approaches, e.g. for IHC, were performed with regard to reliability and validity.
The p-values emerging from these analyses are not to be interpreted in a confirmative sense; they are to be seen as a special descriptive tool in order to guide the exploration towards an efficient candidate prediction rule. Markers were evaluated on a univariate level regarding their potential for prediction (e.g. search for cut-offs) of the clinical endpoints. Further multivariate techniques (e.g. Linear Discriminant Analysis, Multiple Logistic Regression, Principal Component Analysis with Rotation, Cluster Analysis, CART methodology) were employed in order to study combinations of markers. Biomarker and response correlations with clinical covariates were investigated. Candidate groupings derived from biomarkers were checked with time to event variables (Kaplan-Meier curves, Cox proportional hazard model, logrank test).
The patient subset with samples for biomarker analysis was compared to the overall study population regarding baseline patient characteristics and clinical outcome parameters.
For determining correlation between pMAPK expression and clincal outcome, cut-off values were established by descriptive statistical analysis: Franklin H-score was determined by combining staining intensity and percentage of stained tumor cells (pMAPK_hsco=(pMAPK_Nuclear_Staining+1)*pMAPK_Nuclear_Pos_Cells; range: 0-400). “Positive” pMAPK staining was defined by H-scores of =/>100, else the staining was “negative”.
“Positive” pAKT staining was defined by H-scores of =/>300, else the staining was “negative”.

Question: With `C#Cc1cccc(Nc2ncnc3cc(OCCOC)c(OCCOC)cc23)c1` [Tarceva®, N-(3-ethynylphenyl)-6,7-bis(2-methoxyethoxy) quinazolin-4-amine] as the compound, how does the “Outcome compared with TALENT (no benefit of adding erlotinib)” value (NSCLC) read?
Answer: The value was “Identical results”.

Question: And the “Benefit on primary (survival duration) and secondary endpoints” value [1]?
Answer: The value was “no demonstrable benefit”.

Question: And the Survival [2]?
Answer: The Survival was 6.7 months.

Question: And the “HR, benefit from chemotherapy/Tarceva combo” value ([3]; "Positive pMAPK" patients (H-score =/>100), p: 0.0516)?
Answer: The value was 0.500.

Question: What about the “Hazard Ratio, time to progression/death” value ([3]; COX model without covariates, pAKT1 data set, trtgr only) of the same compound?
Answer: Its value is 1.269.

Question: What about the “Hazard Ratio, time to progression/death” value ([3]; COX model without covariates, pMAPK data set, trtgr only) of the same compound?
Answer: Its value is 1.320.

Question: And the “Hazard Ratio, time to progression/death” value ([3]; COX model, trtgr in patients with pAKT1 H-Score ≧ 300)?
Answer: The value was 1.262.

Question: And the “Hazard Ratio, time to progression/death” value ([3]; COX model, trtgr in patients with pMAPK H-Score < 100)?
Answer: The value was 1.634.

Question: What about the “Hazard Ratio, time to progression/death” value ([3]; COX model, trtgr in patients with pMAPK H-Score ≧ 100) of the same compound?
Answer: Its value is 0.773.

Question: And the “Responders (%)” value ([3]; Main clinical population, Tarceva + gemcitabine/cisplatin arm (N = 396))?
Answer: Its value is 42.4%.

Question: What about the “Responders (%)” value ([3]; Patient subset with IHC/FISH biomarker data, Tarceva + gemcitabine/cisplatin arm (N = 46)) of the same compound?
Answer: The value was 43.5%.
